Experimental data as given in US20160279187A1, “CALPAIN INHIBITORS FOR IBD AND COLORECTAL CANCER TREATMENT” (UNIVERSITY OF HAWAII, priority 2013, published 2016).
Where a SMILES comes first, the peptide text is derived from it. The star is where a group is joined. Cbz = O=C(OCc1ccccc1)*; CH2F = FC*

How the values were obtained:
[1] = biological target: T1, M-Calpain activity in CT-26 WT cells (Mus musculus, UniProt O08529); assay: Calpain Activity Assay Kit (BioVision), CT-26.WT; assay type: cell-based; conditions: vs DMSO, 1 hour
T1 construct: endogenous in cells; host or cells: CT-26.WT mouse colon cancer cells
T1 sequence (O08529 20-700 limits assumed): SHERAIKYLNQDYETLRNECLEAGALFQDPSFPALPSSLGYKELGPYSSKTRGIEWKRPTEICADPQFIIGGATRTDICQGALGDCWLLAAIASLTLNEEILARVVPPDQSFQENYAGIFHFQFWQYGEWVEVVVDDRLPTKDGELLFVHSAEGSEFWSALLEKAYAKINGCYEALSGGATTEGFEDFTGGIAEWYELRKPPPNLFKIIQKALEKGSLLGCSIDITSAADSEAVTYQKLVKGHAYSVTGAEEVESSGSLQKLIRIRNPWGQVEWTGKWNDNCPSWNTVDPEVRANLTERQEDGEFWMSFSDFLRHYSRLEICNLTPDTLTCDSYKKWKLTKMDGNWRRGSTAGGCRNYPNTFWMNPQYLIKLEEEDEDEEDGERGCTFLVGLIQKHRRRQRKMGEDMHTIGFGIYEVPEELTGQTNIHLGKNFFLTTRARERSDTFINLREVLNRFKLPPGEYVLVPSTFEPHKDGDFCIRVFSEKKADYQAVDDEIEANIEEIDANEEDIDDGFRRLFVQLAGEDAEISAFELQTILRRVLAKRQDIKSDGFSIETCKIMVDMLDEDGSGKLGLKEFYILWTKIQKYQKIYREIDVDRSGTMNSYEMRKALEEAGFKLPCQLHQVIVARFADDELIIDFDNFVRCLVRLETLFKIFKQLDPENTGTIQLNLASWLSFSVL
T1 sequence (O88456 1-268 partner): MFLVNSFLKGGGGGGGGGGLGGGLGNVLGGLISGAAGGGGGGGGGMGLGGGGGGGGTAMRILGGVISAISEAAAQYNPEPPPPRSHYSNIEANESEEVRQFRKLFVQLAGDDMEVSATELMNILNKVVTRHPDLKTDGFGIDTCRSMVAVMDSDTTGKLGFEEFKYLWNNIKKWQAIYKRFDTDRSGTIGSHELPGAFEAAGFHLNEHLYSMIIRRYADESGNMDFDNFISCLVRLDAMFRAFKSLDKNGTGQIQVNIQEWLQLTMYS
Method: Bone marrow derived macrophages (BMDM) were prepared as previously described by methods known to those skilled in the art. On day 5 of culture, 2×10^6 BMDM were seeded in 6-well plates and the following day were primed for 18 h with TNFα (20 ng/mL), followed by 1 h stimulation with E. faecalis (1 μg/mL; ATCC). Stimulation with E. faecalis was conducted in the presence of the zLLY-CH2F calpain-2 inhibitor (20 μg/mL) or DMSO as a control. Media was removed from treated BMDM, centrifuged at 300×g for 5 min and supernatent analyzed using the Cytometric Bead Array Mouse Inflammation Kit (BD Biosciences, San Jose, Calif.). Cytokine data were analyzed using Flowjo software (Ashland, Oreg.) and GraphPad Prism version 4.0 (GraphPad, La Jolla, Calif.). Cell pellets were lysed and analyzed for IκB and NFκB by Western blot as previously described (Miyazaki, T. et al. Journal of Atherosclerosis and Thrombosis 20, 228-237, 2013). […] Each day 4 wells were quantified using Celltiter MTS reagent (Promega) and the resulting signal was used to generate a proliferation curve. Calpain activity was measured using a Calpain activity assay kit (BioVision, Inc., Milpitas, Calif.) as previously described. Colons were harvested on day 4 and calpain activity measured. […]

[2] = system: IκB / NFκB in CT-26 WT cells; assay: IκB and nuclear NFκB western blot, CT-26.WT; assay type: cell-based, mouse; conditions: vs DMSO

CC(C)C[C@H](NC(=O)OCc1ccccc1)C(=O)N[C@@H](CC(C)C)C(=O)N[C@@H](Cc1ccc(O)cc1)C(=O)CF [zLLY-CH2F, Z-LLY-CH2F] (Cbz-Leu-Leu-Tyr-CH2F)
reduced: M-Calpain activity [1] | IκB degradation [2] | NFκB nuclear localization [2]
